Test results as given in US11053314B2, “Methods to eliminate cancer stem cells by targeting CD47” (The U.S.A, as represented by the Secretary, Department of …, priority 2014, dated 2021).
“Also recorded” adds a separate entry of the source.

Legend:
E-cadherin = E-cadherin mRNA expression (FIG. 23); assay type: cell-based
Source text: FIG. 23 is a bar graph showing that 7N3 peptide increase mRNA expression of E-cadherin.

EGFR = EGFR phosphorylation, IP-western blot in MDA-MB-231 cells and bCSCs; assay type: cell-based, human; settings: MDA-MB-231 cells; B6H12 15 min, EGF 5 min
Description: bCSC-depleted MDA-MB-231 cells and bCSCs were plated at 1×10^6 cells in 6-well plates. The cells were serum-starved for 2 hours using serum-free RPMI medium. The cells were pre-treated with B6H12 (1 μg/ml) for 20 min. Cell lysates were made using immunoprecipitation buffer (50 mM Tris-HCl, 150 mM NaCl, and 1% Nonidet P-40) along with 1× Complete Mini-protease inhibitor mixture (Roche Applied Science). Cell lysates were centrifuged at 13,000 rpm for 15 min. A BCA assay (Thermo scientific) was used to quantify total protein. DYNABEADS® magnetic separation beads (Invitrogen) were used for Immunoprecipitation. The DYNABEADS® magnetic separation beads were washed three times with activation buffer. The cell lysates were incubated in DYNABEADS®-protein G along with anti-EGFR and CD47 antibodies (1:500) and incubated for 24 hours at 4° C. on a shaker. The beads were washed three times with lysate buffer and heated at 95° C. for 5 min. The immunoprecipitated cell lysates were loaded on 4-12% NuPAGE gels (Life Technologies), and Western blotting was performed. For immunoprecipitation, primary antibody against phospho-EGFR (1:1000) was used. Normalization of protein lysates used for Western blotting was performed by reprobing with anti-β-actin (1:3000) or tubulin or EGFR antibodies.
MDA-MB-231 cells were pretreated with B6H12 (1 μg/ml) for 15 min. […]

[1] = tested on: miR let7-family from cellular RNA of MDA-MB-231; assay: Real time PCR of let-7 family miRNAs (Ct values, Table 4); assay type: cell-based, human
Description: (FIG. 28C & FIG. 28D) The differentiated and bCSCs cells were treated with B6H12 Ab for 24 h. The total miRNA was extracted and let-7 family miRNAs were analyzed using real time PCR. Relative expression of let-7a-2miRNA in differentiated and bCSCs cells was determined using U6 as control. (FIG. 28E) EGFR mRNA expression on EVs derived from MDA-MB-231, bCSCs, T47D1 and MCF7 cells. The cells were treated with control or B6H12 antibody for 6 h using AB serum media. (FIG. 28F) Protein expression of EGFR in the presence or absence of B6H12 for 24 h using FACS sorted CD44^+/CD24-bCSCs from MDA-MB-231, T47D1 and MCF7 cell lines. FIG. 28G) Relative expression of let-7a-2miRNA from EVs. FIG. 28H) Amplification and expression of let-7a-3 miRNA from EV […].
CSC-depleted MDA-MB-231 and bCSCs were plated at 1×10^6 cells in 6-well plates and were-treated with B6H12 or Isotype control antibody (1 μg/ml) for 36 h. Total RNA was extracted using TriPure (Roche). One μg of total RNA was used for first strand cDNA synthesis using a Maxima kit (2-Step RT PCR, Thermo Scientific) according to the manufacturer's instructions. Real time PCR was performed using SYBR Green (Roche) on an MJ Research Opticon I instrument (Bio-Rad) with the amplification program as described in (Kaur et al., Matrix Biol, 37:49-59, 2014). β2-microglobulin (B2M), HPRT1 or 18S rRNA primers were used as control to normalize mRNA expression (Table 2).

[2] = tested on: bCSCs derived from MDA-MB-231; assay: BrdU cell proliferation assay, bCSCs from MDA-MB-231; assay type: cell-based, human; settings: bCSC from MDA-MB-231
Description: To assess the effect of B6H12 on CSC proliferation, bCSC from MDA-MB-231 cells were treated with B6H12 or an isotype-matched control antibody, and proliferation was assessed by bromodeoxyuridine (BrdU) incorporation (FIG. 20A). […] We addressed this question by using a CRISPR vector (based on pX330-U6-Chimeric_BB-CBh-hSpCas9; Cong et al., Science. 339(6121):819-23, 2013, PMID: 23287718; sequence and other information available online at addgene.org/42230/) designed to specifically disrupt the CD47 gene in MDA-MB-231 cells (FIGS. 22A and 22B), using the following gRNA targeting sequence: 5′ CTACTGAAGTATACGTAAG ngg 3′ (PC200.Hcd47.g3a; SEQ ID NO: 2). PC200.Hcd47.g3a was transfected into bCSCs derived from MDA-MB-231 using a NUCLEOFECTOR™ kit (Lonza, Switzerland). CD47 negative cells were sorted using FACS analysis. CD47^neg bCSCs cells were expanded in culture and cell proliferation was measured using BrdU cell proliferation kit (EMD Millipore).
Approximately 8,000 cells were plated per well on 96-well plates and incubated overnight at 37° C. The cells were treated with B6H12 or isotype control antibody (1 μg/ml) for 24 h. BrdU was added for 4 or 24 h as indicated in the figures, and BrdU incorporation was quantified using a BrdU Cell Proliferation Kit according to the manufacturer's instructions (EMD Millipore). […]

[3] = tested on: several breast cancer cell lines; settings: ligation of CD47; cited from earlier work
MDA-MB-231 and bCSCs = assay: Mitochondrial energetics, extracellular flux (Seahorse Analyzer); assay type: cell-based, human; settings: 1 μg/ml
Description: The control MDA-MB-231 and bCSCs were plated using XF24 well plates for 1-4 days. Mitochondrial energetics was measured using extracellular flux assay kits. FIG. 12A) B6H12 (1 μg/ml) alters mitochondrial energetics in bCSCs but not in control MDA-MB-231 cells. FIGS. 12B & 12C) Long term treatment of bCSC with B6H12 (1 μg/ml) leads to decrease in basal oxygen consumption rate (OCR) due to decreased ATP associated OCR and decreases reserve mitochondrial metabolic capacity. […] The cells were immunostained using BrdU antibody and mounted with Vectashield DAPI. The confocal images were taken using a Zeiss 710 microscope at 63×. FIGS. 12E & 12F) Control MDA-MB-231 cells and bCSCs were treated with control or B6H12 Ab at 0.1, 1, 2 and 5 […] for 72 h. The cell proliferation was measured using CellTiter 96® Aqueous Non-Radioactive Cell Proliferation Assay (MTS) according to manufacturers' instructions.
B6H12 increased the basal oxygen consumption rate (OCR) at day 1 and day 3 but this was lost at day 4, when both the basal and spare metabolic capacity were decreased. The CD47 ligand TSP1 had less effect than the CD47 antibody. B6H12 decreased asymmetric division and proliferation measured by the MTS assay (FIGS. 12D-12F).

Substance: FIRVVMYEGKK [7N3]
- mRNA expression of E-cadherin (E-cadherin): increase

Substance: epidermal growth factor [EGF]
- EGFR phosphorylation at Y1068 (EGFR): significantly increased
- Ct value of miR let7-family 7a-2 [1]: 26.09 ± 0.50
- Ct value of miR let7-family 7a-3 [1]: 28.88 ± 0.71
- Ct value of miR let7-family 7f-2 [1]: 33.24 ± 0.05
- Ct value of miR let7-family 7d [1]: 27.38 ± 0.18
- Ct value 18S RNA ([1]; reference RNA): 17.65 ± 0.35

Substance: PC200.Hcd47.g3a: gRNA targeting sequence CTACTGAAGTATACGTAAG ngg (SEQ ID NO: 2) in CRISPR vector disrupting the CD47 gene (guide CTACTGAAGTATACGTAAGNGG)
- DNA synthesis (BrdU incorporation) [2]: diminished

Substance: thrombospondin-1 [TSP1]
- programmed cell death [3]: induce programmed cell death
- mitochondrial energetics (MDA-MB-231 and bCSCs): modestly changes; also recorded: less effect
